Measured values reported in patent US9890119B2, “Indole and azaindole derivative having AMPK-activating activity” (SHIONOGI & CO., LTD., priority 2013, dated 2018).

Assays:
[1] = target: T1, Human AMPK α2β2γ1 (Homo sapiens, UniProt O43741+P54646); test: Test Example 2: evaluation of activators of AMP-activated protein kinase (mobility-shift assay, FL-Peptide 7); format: biochemical; conditions: human AMPK α2β2γ1 phosphorylated with CaMKK2; for EC150 (compound concentration showing 150% relative to the control (100%)): 25° C., 2 hours, 1% DMSO; for Emax: control = 100%, read-out: Emax (maximum rate of increase in activity within the measurement range)
T1 construct: The full length cDNAs of human AMPK β2 (NM_005399.3) and human AMPK α2 (NM_006252.3) were inserted; the full length cDNA of human AMPK γ1 (NM_002733.3) had been inserted into pET28b(+); 6xHis (N); made in house; host or cells: Escherichia coli BL21 CodonPlus (DE3)-RIL
Protocol: The full length cDNAs of human AMPK β2 (NM_005399.3) and human AMPK α2 (NM_006252.3) were inserted into the MCS1 and MCS2 of the pETDuet-1 vector to prepare a human AMPK β2 and human AMPK α2 (6× His tag at the 5′ terminus) expressing plasmid. The plasmid was contransfected with an expression plasmid, in which the full length cDNA of human AMPK γ1 (NM_002733.3) had been inserted into pET28b(+), into BL21 CodonPlus (DE3)-RIL to obtain an expression strain. The expression strain was cultured in TB medium, followed by induction with 0.5 mM IPTG, and cultured at 25° C. for 3 hours and then harvested. After ultrasonication, supernatant was collected and applied to Histrap FF column (GE) and RESOUECE Q column (GE) to prepare 12.5 mg of purified sample containing three types of subunit from 1.8 L of broth.
An expression vector, in which the full length cDNA of human CAMKK β (NM_172226.1) had been inserted into pGEX-6P-3, was transfected into BL21 Star (DE3). The expression strain was cultured in TB medium, followed by induction with 0.5 mM IPTG, and cultured at 25° C. for 3 hours and then harvested. After ultrasonication, supernatant was collected and applied to GSTrap FF column (GE) to prepare 14 mg of GST-fused CAMKK […] from 720 ml of broth.
Thus, phosphorylation treatment was carried out as pretreatment.
Human AMPK α2β2γ1 in an amount to give a conversion rate of approximately 10% by reaction for 2 hours, and CaMKK2 in an amount capable of sufficiently imparting activity to AMPK for one hour were mixed in a buffer solution consisting of a 50 mM HEPES-NaOH buffer solution (pH 7.0), 100 mM NaCl, 5 mM magnesium chloride, 0.1% bovine serum albumin, 0.2 mM sodium orthovanadate(V), 1 mM ethylene glycol-bis(2-aminoethyl ether)-N,N,N′,N′-tetraacetic acid (EGTA), 5 mM disodium β-glycerophosphate, 1 mM dithiothreitol and 0.2 mM ATP, and the obtained liquid was left to stand at 25° C. for 1 to 1.5 hours to sufficiently phosphorylate AMPK.
After that, to the enzyme liquid, which had been subjected to phosphorylation treatment, a compound dissolved in DMSO was added so as to have a 1% DMSO concentration. The obtained liquid was left to stand for 10 minutes.
To the liquid, a substrate solution consisting of a 50 mM HEPES-NaOH buffer solution (pH 7.0), 100 mM NaCl, 10 mM magnesium chloride, 0.1% bovine serum albumin, 0.2 mM sodium orthovanadate(V), 1 mM ethylene glycol-bis(2-aminoethyl ether)-N,N,N′,N′-tetraacetic acid (EGTA), 5 mM disodium β-glycerophosphate, 2 mM dithiothreitol, 0.4 mM ATP and 3 μM FL-Peptide 7 (manufactured by Caliper Life Sciences, Inc.) was added in equal amount (10 μl in total). The obtained liquid was allowed to react at 25° C. for 2 hours, and 10 μl of 20 mM EDTA was then added thereto to stop the reaction.
To detect phosphorylated fluorescent substrates, the reaction liquid was applied to a measuring device, LabChip EZ Reader II manufactured by Caliper Life Science, Inc., for detecting fluorescence by using differences in mobility due to differences in charge. The setting conditions for the device were pressure, −1.5 PSI; upstream voltage, −2250 V; downstream voltage, −400 V; post sample buffer sip time, 40 seconds; final delay, 120 seconds; and peak order, Product First.
A conversion rate was calculated from the peak heights of the resulting substrate and product. The conversion rate when not containing a compound was used as a control, and a concentration dependent curve was made by plotting the rate of increase in activity to the control at each concentration of a compound. The compound concentration showing 150% relative to the control (100%) was used as the EC 150 value, and the maximum rate of increase in activity within the measurement range was used as Emax.

[2] = Phototoxicity test

T1 sequence (P54646 whole entry): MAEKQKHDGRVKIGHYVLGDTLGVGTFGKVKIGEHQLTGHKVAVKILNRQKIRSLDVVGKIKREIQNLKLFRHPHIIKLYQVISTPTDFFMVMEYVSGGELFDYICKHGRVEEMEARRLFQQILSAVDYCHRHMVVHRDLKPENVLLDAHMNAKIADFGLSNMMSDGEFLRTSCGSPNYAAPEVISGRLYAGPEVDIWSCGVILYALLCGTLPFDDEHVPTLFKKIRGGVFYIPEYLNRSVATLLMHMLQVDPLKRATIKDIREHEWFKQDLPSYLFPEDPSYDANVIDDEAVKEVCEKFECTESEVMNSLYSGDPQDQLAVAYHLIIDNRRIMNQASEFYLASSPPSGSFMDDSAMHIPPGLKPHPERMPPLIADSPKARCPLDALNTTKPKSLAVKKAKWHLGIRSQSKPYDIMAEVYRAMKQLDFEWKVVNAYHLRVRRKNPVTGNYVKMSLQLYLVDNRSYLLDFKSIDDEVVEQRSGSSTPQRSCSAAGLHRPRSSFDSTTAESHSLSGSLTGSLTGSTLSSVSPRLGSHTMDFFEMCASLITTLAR
T1 sequence (O43741 whole entry): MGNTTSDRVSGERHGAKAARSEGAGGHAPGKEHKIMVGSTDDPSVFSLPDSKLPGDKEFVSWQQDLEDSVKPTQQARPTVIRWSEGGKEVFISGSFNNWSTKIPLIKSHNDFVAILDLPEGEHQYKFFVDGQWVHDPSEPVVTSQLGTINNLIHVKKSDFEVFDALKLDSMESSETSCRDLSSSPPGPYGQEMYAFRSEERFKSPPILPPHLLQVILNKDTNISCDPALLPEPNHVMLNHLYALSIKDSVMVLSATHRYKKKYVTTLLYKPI
T1 sequence (P54619 whole entry partner): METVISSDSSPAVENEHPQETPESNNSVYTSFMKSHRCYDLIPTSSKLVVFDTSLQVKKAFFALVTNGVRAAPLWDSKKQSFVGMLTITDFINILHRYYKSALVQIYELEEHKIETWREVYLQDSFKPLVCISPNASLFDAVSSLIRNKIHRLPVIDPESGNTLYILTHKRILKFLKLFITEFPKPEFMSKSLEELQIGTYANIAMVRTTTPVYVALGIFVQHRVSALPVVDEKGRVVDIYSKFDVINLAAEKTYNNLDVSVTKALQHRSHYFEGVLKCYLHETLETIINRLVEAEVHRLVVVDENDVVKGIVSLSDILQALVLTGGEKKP

In the case of CC(=O)NC(C)(C)c1ccc(Oc2cc3nc(-c4c(F)cc(N5CCOCC5)cc4F)ccc3[nH]2)cc1 [Compound I-3-9], the “EC150 (compound concentration showing 150% relative to the control (100%))” value [1] is reported as 39 nM and the Emax [1] is reported as 446%.
In the case of O[C@@H]1CO[C@H]2[C@@H]1OC[C@H]2Oc1cc2nc(-c3c(F)cc(C4=CCOCC4)cc3F)ccc2[nH]1 [Compound I-3-32], the “EC150 (compound concentration showing 150% relative to the control (100%))” value [1] is reported as 2.6 nM and the Emax [1] is reported as 661%.
In the case of CS(=O)(=O)NC1CC=C(c2ccc(-c3nc4cc(O[C@@H]5CO[C@H]6[C@@H]5OC[C@H]6O)[nH]c4cc3Cl)cc2)CC1 (stereo partly shown) [Compound I-3-47], the “EC150 (compound concentration showing 150% relative to the control (100%))” value [1] is reported as 0.76 nM and the Emax [1] is reported as 727%.
In the case of Clc1cc2[nH]c(O[C@@H]3CO[C@@H]4CCO[C@@H]43)cc2nc1-c1ccc(N2CCOCC2)cc1 [Compound I-3-37], the phototoxicity test [2] is reported as “negative”.
For N#Cc1c(O[C@@H]2CO[C@H]3[C@@H]2OC[C@H]3O)[nH]c2cc(Cl)c(-c3ccc(C4=CCC(C(=O)O)CC4)cc3)cc12 (stereo partly shown) [Compound I-1-8], the “EC150 (compound concentration showing 150% relative to the control (100%))” value [1] was 39 nM and the Emax [1] was 580%.
For N#Cc1cc2[nH]c(O[C@@H]3CO[C@H]4[C@@H]3OC[C@H]4O)c(C#N)c2cc1-c1ccc(N2CCOCC2)cc1 [Compound I-2-17], the “EC150 (compound concentration showing 150% relative to the control (100%))” value [1] was 98 nM and the Emax [1] was 587%.
For CC(=O)NC1CC=C(c2ccc(-c3nc4cc(O[C@@H]5CO[C@H]6[C@@H]5OC[C@H]6O)[nH]c4cc3Cl)cc2)CC1 (stereo partly shown) [Compound I-3-46], the “EC150 (compound concentration showing 150% relative to the control (100%))” value [1] was 0.48 nM and the Emax [1] was 750%.
For CC(=O)NC/C=C/c1ccc(-c2cc3c(C#N)c(O[C@@H]4CO[C@H]5[C@@H]4OC[C@H]5O)[nH]c3cc2Cl)cc1 [Compound I-2-9], the “EC150 (compound concentration showing 150% relative to the control (100%))” value [1] was 34 nM and the Emax [1] was 503%.
In the case of O=C(O)C1CC=C(c2ccc(-c3nc4cc(O[C@@H]5CO[C@H]6[C@@H]5OC[C@H]6O)[nH]c4cc3Cl)cc2)CC1 (stereo partly shown) [Compound I-3-21], the “EC150 (compound concentration showing 150% relative to the control (100%))” value [1] is reported as 0.21 nM and the Emax [1] is reported as 787%.
In the case of O[C@@H]1CO[C@H]2[C@@H]1OC[C@H]2Oc1cc2nc(-c3ccc(N4CCOCC4)cc3)c(Cl)cc2[nH]1 [Compound I-3-15], the “EC150 (compound concentration showing 150% relative to the control (100%))” value [1] is reported as 1.9 nM and the Emax [1] is reported as 559%.
With N#Cc1c(O[C@@H]2CO[C@H]3[C@@H]2OC[C@H]3O)[nH]c2cc(Cl)c(-c3ccc(C4=CCN(C(=O)CO)CC4)cc3)cc12 [Compound I-1-9] the “EC150 (compound concentration showing 150% relative to the control (100%))” value [1] was 20 nM and the Emax [1] was 559%.
With Cc1ccc(Oc2[nH]c3cc(Cl)c(-c4ccc(N5CCOCC5)cc4)cc3c2C#N)cc1C(=O)O [Compound I-1-6] the “EC150 (compound concentration showing 150% relative to the control (100%))” value [1] was 76 nM and the Emax [1] was 618%.
For O[C@@H]1CO[C@H]2[C@@H]1OC[C@H]2Oc1cc2nc(-c3c(F)cc(N4CCOCC4)cc3F)c(F)cc2[nH]1 [Compound I-3-24], the “EC150 (compound concentration showing 150% relative to the control (100%))” value [1] was 8.8 nM and the Emax [1] was 729%.
In the case of O[C@@H]1CO[C@H]2[C@@H]1OC[C@H]2Oc1cc2nc(-c3ccc(-c4ccccc4)cc3)c(Cl)cc2[nH]1 [Compound I-3-18], the “EC150 (compound concentration showing 150% relative to the control (100%))” value [1] is reported as 4.1 nM and the Emax [1] is reported as 489%.
In the case of Cc1ccc(Oc2nc3nc(-c4ccc(N5CCOCC5)cc4)c(Cl)cc3[nH]2)cc1C(=O)O [A−1, reference compound], the “EC150 (compound concentration showing 150% relative to the control (100%))” value [1] is reported as 130 nM and the Emax [1] is reported as 394%.
With N#Cc1c(O[C@@H]2CO[C@H]3[C@@H]2OC[C@H]3O)[nH]c2ccc(-c3c(F)cc(C4=CCOCC4)cc3F)nc12 [Compound I-3-45] the “EC150 (compound concentration showing 150% relative to the control (100%))” value [1] was 26 nM and the Emax [1] was 694%.
In the case of CC(C)(CO)C(=O)N1CCC(Oc2cc3nc(-c4ccc(C5=CCC(C(=O)O)CC5)cc4)c(Cl)cc3[nH]2)CC1 (stereo not shown) [Compound I-3-38], the Emax [1] is reported as 560%.
With CC(C)(CO)C(=O)N1CCC(Oc2cc3nc(-c4ccc(N5CCOCC5)cc4)c(Cl)cc3[nH]2)CC1 [Compound I-3-28] the “EC150 (compound concentration showing 150% relative to the control (100%))” value [1] was 54 nM and the Emax [1] was 510%.
In the case of N#Cc1c(O[C@@H]2CO[C@H]3[C@@H]2OC[C@H]3O)[nH]c2ccc(-c3c(F)cc(N4CC[C@@H](O)C4)cc3F)nc12 [Compound I-3-49], the “EC150 (compound concentration showing 150% relative to the control (100%))” value [1] is reported as 18 nM and the Emax [1] is reported as 848%.
With CC(C)(C(=O)O)[C@H]1CC[C@H](Oc2cc3nc(-c4ccc(N5CCOCC5)cc4)c(Cl)cc3[nH]2)CC1 [Compound I-3-22] the “EC150 (compound concentration showing 150% relative to the control (100%))” value [1] was 120 nM and the Emax [1] was 264%.
For Cc1ccc(Oc2cc3nc(-c4ccc(N5CCOCC5)cc4)c(Cl)cc3[nH]2)cc1C(=O)O [Compound I-3-50], the “EC150 (compound concentration showing 150% relative to the control (100%))” value [1] was 63 nM and the Emax [1] was 435%.
